Assay results: US20190218588A1, “NOVEL CELL CULTURE METHOD, CELL CULTURE SYSTEM AND USES THEREOF” (priority 2016, published 2019)

Tested on: human hepatocytes cultured in human plasma medium
Assay type: cell-based

COc1cc2c(c3oc(=O)c4c(c13)CCC4=O)[C@@H]1C=CO[C@@H]1O2 [Aflatoxin B1]
UC50 value after day 10 treatment relative to 2-day treatment (fold lower): 19 ×
cytotoxicity to human hepatocytes: cytotoxic
